Data from patent US11459327B1, “Cycloalkyl and hetero-cycloalkyl inhibitors, preparation methods therefor, and use thereof” (Suzhou Zelgen Biopharmaceuticals Co., Ltd., priority 2019, dated 2022).

Test system: NCI-H358(KRAS^G12C mutation) cells
Test: Cell assay of antiproliferative activity (Celltiter-Glo, 5 days) against NCI-H358 cells
Assay type: cell-based
Settings: 5 days incubation
Protocol: Cell assay of antiproliferative activity of compounds against NCI-H358(KRAS^G12C mutation) and A549(KRAS^G12S mutation) cells.
40 μl phosphate buffer was added to the outer wells of the 384 microplate, and 40 μl cell suspension to be tested was added to the other wells. Then the microplate was incubated in a carbon dioxide incubator overnight.
The compounds to be tested were gradiently diluted, each compound was performed 10 concentration gradients (diluted from 50 μM to 0.003 μM) and added 100 nL to the corresponding wells in the microplate. After addition, 40 μl of phosphate buffer was added to each well in rows A and P and columns 1 and 24, and then the microplate was incubated in a carbon dioxide incubator for 5 days.
20 μL of Promega Celltiter-Glo reagent was added to each well of the microplate, and then the luminescence signal was stabilized by oscillating at room temperature for 10 min. Then PekinElmer Envision multi-label analyzer was used to read.
Finally, GraphPad Prism software was used to calculate the IC50 value of the compound and the fitting curve was drawn.
Anti-proliferative activity of the compounds of the present invention against NCI-H358(KRAS^G12C mutation) and A549(KRAS^G12S mutation) cells were shown in Table 1.

Row | Compound | IC50 (Homo sapiens, NCI-H358, 120 h) [nM] | IC50 [nM]
1 | C=CC(=O)N1CCN(c2nc(OCC3(CN(C)C)CC3)nc3c2CC(C)N(c2cccc4cccc(Cl)c24)C3)CC1CC#N (single isomer, unassigned) [Example 29A, 2-(1-acroloyl-4-(7-(8-chloronaphthalen-1-yl)-2-((1-((dimethylamino)methyl)cyclopropyl)methoxyl)-6-methyl-5,6,7,8-tetrahydropyrido [3,4-d]pyrimidin-4-yl)piperazin-2-yl) acetonitrile] | – | 360
2 | C=CC(=O)N1CCN(c2nc(OCC3(CN(C)C)CC3)nc3c2CC(C)N(c2cccc4cccc(Cl)c24)C3)CC1CC#N (single isomer, unassigned) [Example 29B, 2-(1-acroloyl-4-(7-(8-chloronaphthalen-1-yl)-2-((1-((dimethylamino)methyl)cyclopropyl)methoxyl)-6-methyl-5,6,7,8-tetrahydropyrido [3,4-d]pyrimidin-4-yl)piperazin-2-yl) acetonitrile] | – | 53
3 | C=CC(=O)N1CCN(c2nc(OCC3(CN(C)C)CC3)nc3c2CC(C)N(c2cccc4cccc(Cl)c24)C3)CC1CC#N (single isomer, unassigned) [Example 29C, 2-(1-acroloyl-4-(7-(8-chloronaphthalen-1-yl)-2-((1-((dimethylamino)methyl)cyclopropyl)methoxyl)-6-methyl-5,6,7,8-tetrahydropyrido [3,4-d]pyrimidin-4-yl)piperazin-2-yl) acetonitrile] | – | 100
4 | C=CC(=O)N1CCN(c2nc(OCC3(CN(C)C)CC3)nc3c2CC(C)N(c2cccc4cccc(Cl)c24)C3)CC1CC#N (single isomer, unassigned) [Example 29D, 2-(1-acroloyl-4-(7-(8-chloronaphthalen-1-yl)-2-((1-((dimethylamino)methyl)cyclopropyl)methoxyl)-6-methyl-5,6,7,8-tetrahydropyrido [3,4-d]pyrimidin-4-yl)piperazin-2-yl) acetonitrile] | – | 6
5 | C=CC(=O)N1CCN(c2nc(OCCN(C)C3(C)CCC3)nc3c2CCN(c2cccc4cccc(Cl)c24)C3)CC1CC#N (stereo not shown) [Example 23, 2-(1-acroloyl-4-(7-(8-chloronaphthalen-1-yl)-2-(2-(methyl(1-methylcyclobutyl)amino)ethoxy)-5,6,7,8-tetrahydropyrido[3,4-d]pyrimidin-4-yl)piperazin-2-yl) acetonitrile] | – | 13
6 | C=CC(=O)N1CCN(c2nc(OCC3(CNC)CC3)nc3c2CCN(c2cccc4cccc(Cl)c24)C3)CC1CC#N (stereo not shown) [Example 26, 2-(1-acroloyl-4-(7-(8-chloronaphthalen-1-yl)-2-((1-((methylamino)methyl)cyclopropyl)methoxy)-5,6,7,8-tetrahydropyrido[3,4-d]pyrimidin-4-yl)piperazin-2-yl) acetonitrile] | – | 62
7 | C=CC(=O)N1C[C@@H](C)N(c2nc(OCC3(CN(C)C)CC3)nc3c2CCN(c2cccc4cccc(Cl)c24)C3)C[C@@H]1C [Example 34, 1-((2S,5R)-4-(7-(8-chloronaphthalen-1-yl)-2-((1-((dimethylamino)methyl)cyclopropyl)methoxyl)-5,6,7,8-tetrahydropyrido[3,4-d]pyrimidin-4-yl)-2,5-dimethylpiperazin-1-yl)prop-2-ene-1-one] | 1900 | –
8 | C=C(F)C(=O)N1CCN(c2nc(OCC3(CN(C)C)CC3)nc3c2CCN(c2c(C)ccc4[nH]ncc24)C3)C[C@@H]1CC#N [Example 35] | 310 | –
9 | C=CC(=O)N1[C@@H]2CC[C@H]1CN(c1nc(OCC3(CN(C)C)CC3)nc3c1CCN(c1cccc4cccc(Cl)c14)C3)C2 [Example 37, 1-((1R,5S)-3-(7-(8-chloronaphthalen-1-yl)-2-((1-((dimethylamino)methyl)cyclopropyl)methoxyl)-5,6,7,8-tetrahydropyrido[3,4-d]pyrimidin-4-yl)-3,8-diazabicyclo[3.2.1]octane-8-yl)prop-2-ene-1-one] | 1400 | –
10 | C=CC(=O)N1CC2CN(c3nc(OCC4(CN(C)C)CC4)nc4c3CCN(c3cccc5cccc(Cl)c35)C4)CC2C1 (stereo not shown) [Example 38, 1-(5-(7-(8-chloronaphthalen-1-yl)-2-((1-((dimethylamino)methyl)cyclopropyl)methoxyl)-5,6,7,8-tetrahydropyrido[3,4-d]pyrimidin-4-yl)hexahydropyrrolo[3,4-c]pyrrole-2(1H)-yl)prop-2-ene-1-one] | 4900 | –
11 | C=CC(=O)N1CCN(c2nc(OCC3(CN(C)C)CC3)nc3c2CCN(c2cccc4cccc(Cl)c24)C3)CC12CC2 [Example 39, 1-(7-(7-(8-chloronaphthalen-1-yl)-2-((1-((dimethylamino)methyl)cyclopropyl)methoxyl)-5,6,7,8-tetrahydropyrido[3,4-d]pyrimidin-4-yl)-4,7-diazaspiro[2.5]octane-4-yl)prop-2-ene-1-one] | 2500 | –
12 | C=CC(=O)N1CCN(c2nc(OCC3(CN(C)C)CC3)nc3c2CCN(c2cccc4cccc(Cl)c24)C3)CC1C(F)(F)F (stereo not shown) [Example 41, 1-(-4-(7-(8-chloronaphthalen-1-yl)-2-((1-((dimethylamino)methyl)cyclopropyl)methoxyl)-5,6,7,8-tetrahydropyrido[3,4-d]pyrimidin-4-yl)-2-(trifluoromethyl)piperazin-1-yl)prop-2-ene-1-one] | 1400 | –
13 | C=CC(=O)N1CC2CC1CN2c1nc(OCC2(CN(C)C)CC2)nc2c1CCN(c1cccc3cccc(Cl)c13)C2 (stereo not shown) [Example 42, 1-(5-(7-(8-chloronaphthalen-1-yl)-2-((1-((dimethylamino)methyl)cyclopropyl)methoxyl)-5,6,7,8-tetrahydropyrido[3,4-d]pyrimidin-4-yl)-2,5-diazabicyclo[2.2.1]heptane-2-yl)prop-2-ene-1-one] | 5500 | –
14 | C=CC(=O)N1CC2CCC1CN2c1nc(OCC2(CN(C)C)CC2)nc2c1CCN(c1cccc3cccc(Cl)c13)C2 (stereo not shown) [Example 43, 1-(5-(7-(8-chloronaphthalen-1-yl)-2-((1-((dimethylamino)methyl)cyclopropyl)methoxyl)-5,6,7,8-tetrahydropyrido[3,4-d]pyrimidin-4-yl)-2,5-diazabicyclo[2.2.2]octane-2-yl)prop-2-ene-1-one] | 830 | –
15 | C=CC(=O)N1CC2(CCN(c3nc(OCC4(CN(C)C)CC4)nc4c3CCN(c3cccc5cccc(Cl)c35)C4)C2)C1 [Example 44, 1-(6-(7-(8-chloronaphthalen-1-yl)-2-((1-((dimethylamino)methyl)cyclopropyl)methoxyl)-5,6,7,8-tetrahydropyrido[3,4-d]pyrimidin-4-yl)-2,6-diazaspiro[3.4]octane-2-yl)prop-2-ene-1-one] | 3300 | –

Continued, in another order:

Row | IC50 (Homo sapiens, NCI-H358, 120 h) [nM] | Compound | IC50 [nM]
16 | 59 | C=C(F)C(=O)N1CCN(c2nc(OCC3(CN(C)C)COC3)nc3c2CCN(c2cccc4cccc(Cl)c24)C3)CC1CC#N (stereo not shown) [Example 25, 2-(4-(7-(8-chloronaphthalen-1-yl)-2-((3-((dimethylamino)methyl)oxetan-3-yl)methoxy)-5,6,7,8-tetrahydropyrido[3,4-d]pyrimidin-4-yl)-1-(2-fluoroacroloyl)piperazin-2-yl) acetonitrile] | –
17 | 8 | C=C(F)C(=O)N1CCN(c2nc(OCC3(CN(C)C)CC3)nc3c2CCN(c2cccc4ccc(F)c(Cl)c24)C3)C[C@@H]1CC#N [Example 28] | –
18 | 41 | C=CC(=O)N1CCN(c2nc(OCC3(N(C)C)CC3)nc3c2CCN(c2cccc4cccc(Cl)c24)C3)CC1CC#N (stereo not shown) [Example 30] | –
19 | 73 | C=CC(=O)N1CCN(c2nc(OCCN(C)C3(COC)CCC3)nc3c2CCN(c2cccc4cccc(Cl)c24)C3)CC1CC#N (stereo not shown) [Example 31, 2-(acroloyl-4-(7-(8-chloronaphthalen-1-yl)-2-(2-((1-(methoxymethyl)cyclobutyl)(methyl)amino)ethoxy)-5,6,7,8-tetrahydropyrido[3,4-d]pyrimidin-4-yl)piperazin-2-yl) acetonitrile] | –
20 | 120 | C=CC(=O)N1CCN(c2nc(OCC3(CN(C)C4CC4)COC3)nc3c2CCN(c2cccc4cccc(Cl)c24)C3)CC1CC#N (stereo not shown) [Example 32, 2-(1-acroloyl-4-(7-(8-chloronaphthalen-1-yl)-2-((3-((cyclopropyl(methyl)amino)methyl)oxetan-3-yl)methoxyl)-5,6,7,8-tetrahydropyrido[3,4-d]pyrimidin-4-yl)piperazin-2-yl) acetonitrile] | –
21 | 66 | C=C(F)C(=O)N1CCN(c2nc(OCCN(C)C3(C)CCC3)nc3c2CCN(c2cccc4ccc(F)c(Cl)c24)C3)CC1CC#N (stereo not shown) [Example 33, 2-(4-(7-(8-chloro-7-fluoronaphthalen-1-yl)-2-(2-(methyl(1-methylcyclobutyl)amino)ethoxy)-5,6,7,8-tetrahydropyrido[3,4-d]pyrimidin-4-yl)-1-(2-fluoroacroloyl)piperazin-2-yl) acetonitrile] | –
22 | 250 | [2H]C([2H])([2H])N(CC1(COc2nc3c(c(N4CCN(C(=O)C(=C)F)[C@@H](CC#N)C4)n2)CCN(c2c(C)ccc4[nH]ncc24)C3)CC1)C([2H])([2H])[2H] [Example 36] | –
23 | 300 | C=CC(=O)N1CC2(C1)CN(c1nc(OCC3(CN(C)C)CC3)nc3c1CCN(c1cccc4cccc(Cl)c14)C3)C2 [Example 40, 1-(6-(7-(8-chloronaphthalen-1-yl)-2-((1-((dimethylamino)methyl)cyclopropyl)methoxyl)-5,6,7,8-tetrahydropyrido[3,4-d]pyrimidin-4-yl)-2,6-diazaspiro[3.3]heptane-2-yl)prop-2-ene-1-one] | –
24 | 49 | [2H]C([2H])([2H])N(CC1(COc2nc3c(c(N4CCN(C(=O)C(=C)F)[C@@H](CC#N)C4)n2)CCN(c2cccc4cccc(Cl)c24)C3)CC1)C([2H])([2H])[2H] [Example 45] | –
25 | 37 | C=C(F)C(=O)N1CCN(c2nc(OCC3(COC)CN(C)C3)nc3c2CCN(c2cccc4cccc(Cl)c24)C3)C[C@@H]1CC#N [Example 46] | –
